# In patent US9980943B2, “Methods of treating muscular dystrophy” (BOARD OF REGENTS OF THE NEVADA SYSTEM OF HIGHER EDUCATION, …, priority 2013, dated 2018):
# Assays:
# Assay type in all cases: cell-based, mouse
# [1] = system: β-galactosidase in CMV-LacZ C2C12 myotubes; test: CMV-LacZ secondary screen in C2C12 myotubes (β-Gal stabilizing assay); conditions: for CMV-LACZ in Myotubes (β-galactosidase activity relative to DMSO): CMV-LacZ C2C12 myotubes, 96-well format
# In short: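 β-Gal level was the read-out, measured in a clonal C2C12 line expressing LacZ from a CMV promoter. Dose-response curves used six concentrations, 0.5 μM up to 40 μM, with duplicate points.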
# [2] = system: α7 integrin (LacZ reporter in α7βgal+/− myoblasts); test: Myoblast α7+/LacZ integrin FDG assay (Burkin assay in myoblasts, 96-well); conditions: α7+/LacZ myoblasts, 96-well
# [3] = system: α7 integrin (LacZ reporter in α7+/LacZ myotubes); test: Myotube α7 integrin FDG assay (Burkin assay in myotubes, 96-well); conditions: myotubes
# [4] = 5 uM, C2C12 CMV-LacZ myotubes, fold relative to DMSO
# [5] = 10 uM, C2C12 CMV-LacZ myotubes, fold relative to DMSO
# [6] = 20 uM, C2C12 CMV-LacZ myotubes, fold relative to DMSO
# [7] = 40 uM, C2C12 CMV-LacZ myotubes, fold relative to DMSO
SMILES,"CMV-LACZ in Myotubes, signal relative to DMSO [1, 4]","CMV-LACZ in Myotubes, signal relative to DMSO [1, 5]","CMV-LACZ in Myotubes, signal relative to DMSO [1, 6]","CMV-LACZ in Myotubes, signal relative to DMSO [1, 7]","Burkin Assay in Myoblasts, signal relative to DMSO ([2]; 0.5 uM)","Burkin Assay in Myoblasts, signal relative to DMSO ([2]; 1 uM)","Burkin Assay in Myoblasts, signal relative to DMSO ([2]; 5 uM)","Burkin Assay in Myoblasts, signal relative to DMSO ([2]; 10 uM)","Burkin Assay in Myoblasts, value relative to DMSO ([2]; 0.5 uM)","Burkin Assay in Myoblasts, value relative to DMSO ([2]; 1 uM)","Burkin Assay in Myoblasts, value relative to DMSO ([2]; 5 uM)","Burkin Assay in Myoblasts, value relative to DMSO ([2]; 10 uM)","Burkin Assay in Myoblasts, value relative to DMSO ([2]; 20 uM)","Burkin Assay in Myoblasts, value relative to DMSO ([2]; 40 uM)",Burkin Assay in Myotubes (signal relative to DMSO) ([3]; 0.5 uM),Burkin Assay in Myotubes (signal relative to DMSO) ([3]; 1 uM),Burkin Assay in Myotubes (signal relative to DMSO) ([3]; 5 uM),Burkin Assay in Myotubes (signal relative to DMSO) ([3]; 10 uM),Burkin Assay in Myotubes (signal relative to DMSO) ([3]; 20 uM),Burkin Assay in Myotubes (signal relative to DMSO) ([3]; 40 uM),other results
COc1ccc(S(=O)(=O)N2CCCCCC2)cc1C(=O)N1CCN(c2ccccc2O)CC1 [MLS001150751-01],0.9134,0.8336,0.992,0.889,1.114,1.059,0.9941,0.9573,,,,,,,,,,,,,"Burkin Assay in Myoblasts, signal relative to DMSO ([2]; 20 uM): 1.079; Burkin Assay in Myoblasts, signal relative to DMSO ([2]; 40 uM): 0.8454; Burkin Assay in Myotubes, α7 integrin LacZ reporter signal relative to DMSO ([3]; 0.5 uM): 1.0993; Burkin Assay in Myotubes, α7 integrin LacZ reporter signal relative to DMSO ([3]; 1 uM): 0.9504; Burkin Assay in Myotubes, α7 integrin LacZ reporter signal relative to DMSO ([3]; 5 uM): 1.254; Burkin Assay in Myotubes, α7 integrin LacZ reporter signal relative to DMSO ([3]; 10 uM): 1.023; Burkin Assay in Myotubes, α7 integrin LacZ reporter signal relative to DMSO ([3]; 20 uM): 1.0842; Burkin Assay in Myotubes, α7 integrin LacZ reporter signal relative to DMSO ([3]; 40 uM): 0.5343"
CCOCCCN1C(=O)CN(C2CCCCCC2)C(=O)C1c1ccc(OC)cc1 (centres unmarked) [MLS000046123-01],0.9124,1.084,1.145,1.076,,,,,1.049,0.9808,0.9565,1.007,1.002,0.9894,0.9802,0.9389,0.8905,0.865,0.9268,0.9203,
COc1ccc(NC(=O)c2cccc(N3C(=O)c4ccc(C(=O)Nc5ccc(OC)c(O)c5)cc4C3=O)c2)cc1O [MLS001124732-01],1.025,1.016,1.07,0.972,1.121,1.071,0.8622,0.8125,,,,,,,,,,,,,"Burkin Assay in Myoblasts, signal relative to DMSO ([2]; 20 uM): 0.6893; Burkin Assay in Myoblasts, signal relative to DMSO ([2]; 40 uM): 0.6581; Burkin Assay in Myotubes, α7 integrin LacZ reporter signal relative to DMSO ([3]; 0.5 uM): 1.0065; Burkin Assay in Myotubes, α7 integrin LacZ reporter signal relative to DMSO ([3]; 1 uM): 1.029; Burkin Assay in Myotubes, α7 integrin LacZ reporter signal relative to DMSO ([3]; 5 uM): 0.8759; Burkin Assay in Myotubes, α7 integrin LacZ reporter signal relative to DMSO ([3]; 10 uM): 0.8964; Burkin Assay in Myotubes, α7 integrin LacZ reporter signal relative to DMSO ([3]; 20 uM): 0.8719; Burkin Assay in Myotubes, α7 integrin LacZ reporter signal relative to DMSO ([3]; 40 uM): 0.7888"
COc1cccc(N2C(=O)CC(N3CCc4ccccc4C3)C2=O)c1 (centres unmarked) [MLS000769322-01],,,,,,,,,0.9535,0.9354,0.9653,1.0771,1.006,0.955,0.9609,1.055,1.1195,1.165,1.067,1.019,CMV-LACZ in Myotubes (β-galactosidase activity relative to DMSO) ([1]; 5 uM): 0.8609; CMV-LACZ in Myotubes (β-galactosidase activity relative to DMSO) ([1]; 10 uM): 1.02; CMV-LACZ in Myotubes (β-galactosidase activity relative to DMSO) ([1]; 20 uM): 1.118; CMV-LACZ in Myotubes (β-galactosidase activity relative to DMSO) ([1]; 40 uM): 1.091
O=C(O)CCn1cc(/C=C2/NC(=S)N(c3ccccc3)C2=O)c(-c2ccccc2)n1 [MLS000585616-01],,,,,,,,,,,,,,,,,,,,,"fold induction at 5 µM ([1]; Mus musculus, C2C12, read-out: CMV-LACZ in Myotubes, signal relative to DMSO, 5 uM, C2C12 CMV-LacZ myotubes, fold relative to DMSO): 0.903; fold induction at 10 µM ([1]; Mus musculus, C2C12, read-out: CMV-LACZ in Myotubes, signal relative to DMSO, 10 uM, C2C12 CMV-LacZ myotubes, fold relative to DMSO): 0.791; fold induction at 20 µM ([1]; Mus musculus, C2C12, read-out: CMV-LACZ in Myotubes, signal relative to DMSO, 20 uM, C2C12 CMV-LacZ myotubes, fold relative to DMSO): 0.91; fold induction at 40 µM ([1]; Mus musculus, C2C12, read-out: CMV-LACZ in Myotubes, signal relative to DMSO, 40 uM, C2C12 CMV-LacZ myotubes, fold relative to DMSO): 0.879; fold induction at 0.5 µM ([2]; Mus musculus, Myoblast, 48 h, 0.5 uM, read-out: Burkin Assay in Myoblasts, value relative to DMSO): 0.681; fold induction at 1 µM ([2]; Mus musculus, Myoblast, 48 h, 1 uM, read-out: Burkin Assay in Myoblasts, value relative to DMSO): 0.943; fold induction at 5 µM ([2]; Mus musculus, Myoblast, 48 h, 5 uM, read-out: Burkin Assay in Myoblasts, value relative to DMSO): 1.01; fold induction at 10 µM ([2]; Mus musculus, Myoblast, 48 h, 10 uM, read-out: Burkin Assay in Myoblasts, value relative to DMSO): 0.977; fold induction at 20 µM ([2]; Mus musculus, Myoblast, 48 h, 20 uM, read-out: Burkin Assay in Myoblasts, value relative to DMSO): 0.935; fold induction at 40 µM ([2]; Mus musculus, Myoblast, 48 h, 40 uM, read-out: Burkin Assay in Myoblasts, value relative to DMSO): 0.932; fold induction at 0.5 µM ([3]; Mus musculus, Myotube, 0.5 uM, read-out: Burkin Assay in Myotubes (signal relative to DMSO)): 0.999; fold induction at 1 µM ([3]; Mus musculus, Myotube, 1 uM, read-out: Burkin Assay in Myotubes (signal relative to DMSO)): 0.958; fold induction at 5 µM ([3]; Mus musculus, Myotube, 5 uM, read-out: Burkin Assay in Myotubes (signal relative to DMSO)): 1.58; fold induction at 10 µM ([3]; Mus musculus, Myotube, 10 uM, read-out: Burkin Assay in Myotubes (signal relative to DMSO)): 1.15; fold induction at 20 µM ([3]; Mus musculus, Myotube, 20 uM, read-out: Burkin Assay in Myotubes (signal relative to DMSO)): 1.03; fold induction at 40 µM ([3]; Mus musculus, Myotube, 40 uM, read-out: Burkin Assay in Myotubes (signal relative to DMSO)): 0.962"
COc1ccc(-n2c(SCC(=O)Nc3cccc(C(=O)O)c3)nnc2-c2ccco2)cc1 [MLS001215742-01],,,,,,,,,0.887,0.926,1.04,1.105,0.7682,0.8165,1.02,1.104,0.9803,1.155,0.8384,0.9687,CMV-LACZ in Myotubes (β-galactosidase activity relative to DMSO) ([1]; 5 uM): 1.026; CMV-LACZ in Myotubes (β-galactosidase activity relative to DMSO) ([1]; 10 uM): 1.1034; CMV-LACZ in Myotubes (β-galactosidase activity relative to DMSO) ([1]; 20 uM): 0.9254; CMV-LACZ in Myotubes (β-galactosidase activity relative to DMSO) ([1]; 40 uM): 0.9851
O=C(COC(=O)c1cc2ccccc2oc1=O)Nc1ccc(F)cc1F [MLS000516719-01],,,,,,,,,1.006,1.048,1.0321,1.068,0.9197,0.9651,0.8618,1.0239,1.203,1.184,1.107,1.175,CMV-LACZ in Myotubes (β-galactosidase activity relative to DMSO) ([1]; 5 uM): 0.8894; CMV-LACZ in Myotubes (β-galactosidase activity relative to DMSO) ([1]; 10 uM): 1.114; CMV-LACZ in Myotubes (β-galactosidase activity relative to DMSO) ([1]; 20 uM): 1.103; CMV-LACZ in Myotubes (β-galactosidase activity relative to DMSO) ([1]; 40 uM): 1.072
COc1ccc(S(=O)(=O)Nc2ccc(S(=O)(=O)Nc3nccs3)cc2)cc1 [MLS001218795-01],0.9553,1.023,1.2115,0.989,1.024,0.9596,0.8609,0.9116,,,,,,,,,,,,,"Burkin Assay in Myoblasts, signal relative to DMSO ([2]; 20 uM): 0.9353; Burkin Assay in Myoblasts, signal relative to DMSO ([2]; 40 uM): 0.9876; Burkin Assay in Myotubes, α7 integrin LacZ reporter signal relative to DMSO ([3]; 0.5 uM): 0.9648; Burkin Assay in Myotubes, α7 integrin LacZ reporter signal relative to DMSO ([3]; 1 uM): 0.9363; Burkin Assay in Myotubes, α7 integrin LacZ reporter signal relative to DMSO ([3]; 5 uM): 0.9778; Burkin Assay in Myotubes, α7 integrin LacZ reporter signal relative to DMSO ([3]; 10 uM): 0.9991; Burkin Assay in Myotubes, α7 integrin LacZ reporter signal relative to DMSO ([3]; 20 uM): 0.9463; Burkin Assay in Myotubes, α7 integrin LacZ reporter signal relative to DMSO ([3]; 40 uM): 0.9606"
